From ChEMBL document CHEMBL1154376, “Anomalous microbial transformations on the taxane ring of 10-DAB by a strain of the fungus Curvularia lunata: transbenzoylation, transacetylation, and opening of the oxetane ring” (J Nat Prod, 2009)

What follows are molecules tested on NCI-H460 (assay: Cytotoxicity against human H460 cells).
Assay type: functional, cell-based

| SMILES | IC50 [µM] |
| --- | --- |
| CC(=O)O[C@@]12CO[C@@H]1C[C@@H](O)[C@@]1(C)C(=O)C(=O)C3=C(C)[C@@H](O)C[C@@](O)([C@@H](OC(=O)c4ccccc4)[C@H]21)C3(C)C | 60 |
| C=C1[C@H]2C[C@@]3(OC(=O)c4ccccc4)C(=O)[C@@H]4[C@](O)(COC(C)=O)[C@@H](O)C[C@H](O)[C@@]4(C)[C@H](O)[C@@](O)(O2)[C@@H]1C3(C)C | 95.2 |
| CC(=O)O[C@@]12CO[C@@H]1C[C@H](O)[C@@]1(C)C(=O)[C@H](O)C3=C(C)[C@@H](O)C[C@@](O)([C@@H](OC(=O)c4ccccc4)[C@H]21)C3(C)C | 3.1 |
| C=C1[C@H]2C[C@@]3(OC(=O)c4ccccc4)C(=O)[C@@H]4[C@]5(OC(C)=O)CO[C@@H]5C[C@H](O)[C@@]4(C)[C@H](O)[C@@](O)(O2)[C@@H]1C3(C)C | 51.5 |
